For experiment [1], the system named is CD69 in human whole blood. Description: Induction of CD69 in human whole blood (hWB). Format: cell-based. Conditions: heparinized human whole blood, 17 h, CD69 surface staining; 100% set to 1 uM resiquimod; average where assay repeated. The essentials: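 hWB stimulated with compound at 1 uM final (1 mM stock), 37° C o/n (17 hrs). Surface CD69-PE staining with CD14/CD19 gating, fix/lysis, then flow cytometry read. IC50 curves with 100% set to 1 uM resiquimod.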

The target in another experiment is T1, human TLR7 (Homo sapiens, UniProt Q9NYK1).
T1 construct: host or cells: HEK-Blue TLR7 cells (engineered human embryonic kidney cells)
T1 sequence (Q9NYK1 27-1049): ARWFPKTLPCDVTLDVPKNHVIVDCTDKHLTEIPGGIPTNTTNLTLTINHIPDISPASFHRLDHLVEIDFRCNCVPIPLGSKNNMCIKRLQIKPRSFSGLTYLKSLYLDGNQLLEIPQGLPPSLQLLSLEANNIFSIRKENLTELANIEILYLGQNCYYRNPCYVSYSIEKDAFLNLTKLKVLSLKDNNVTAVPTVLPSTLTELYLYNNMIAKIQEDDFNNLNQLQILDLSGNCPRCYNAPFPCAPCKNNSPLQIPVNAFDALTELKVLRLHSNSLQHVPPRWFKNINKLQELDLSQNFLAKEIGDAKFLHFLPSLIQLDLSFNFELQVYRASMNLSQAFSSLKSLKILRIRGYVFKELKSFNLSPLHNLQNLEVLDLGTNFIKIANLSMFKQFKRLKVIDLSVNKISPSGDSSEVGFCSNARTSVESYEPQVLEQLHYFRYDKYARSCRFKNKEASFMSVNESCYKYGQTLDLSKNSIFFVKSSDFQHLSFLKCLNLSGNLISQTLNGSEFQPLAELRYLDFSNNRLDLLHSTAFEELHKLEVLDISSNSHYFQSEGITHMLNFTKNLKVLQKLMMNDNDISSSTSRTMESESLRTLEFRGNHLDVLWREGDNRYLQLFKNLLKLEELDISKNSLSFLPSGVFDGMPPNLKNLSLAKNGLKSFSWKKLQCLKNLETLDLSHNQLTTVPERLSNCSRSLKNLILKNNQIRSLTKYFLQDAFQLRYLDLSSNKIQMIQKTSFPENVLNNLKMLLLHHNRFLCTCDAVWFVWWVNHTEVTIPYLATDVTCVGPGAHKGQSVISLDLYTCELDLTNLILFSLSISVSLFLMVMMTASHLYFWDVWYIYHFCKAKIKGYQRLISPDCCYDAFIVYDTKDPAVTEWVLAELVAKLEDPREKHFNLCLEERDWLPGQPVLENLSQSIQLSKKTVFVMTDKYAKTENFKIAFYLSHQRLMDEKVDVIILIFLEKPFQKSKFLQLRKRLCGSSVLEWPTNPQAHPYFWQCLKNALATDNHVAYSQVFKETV
Description: Human TLR7 agonist activity (hTLR7 reporter) assay in HEK-Blue TLR7 cells, SEAP readout. Format: cell-based. The following applies: 18 h treatment, average where assay repeated. The essentials: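 HEK-Blue TLR7 cells (15,000/well) treated with compound for 18 h at 37 °C, 5% CO2. Secreted SEAP measured with Quanti-Blue, 30 min, OD 620 nm. EC50 taken as concentration giving half-maximal response between baseline and maximum.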

On to `COc1cc(CNCCO)ccc1Cn1ncc2nc(N)nc(NCC3CC4(CC4)C3)c21` [Compound 170], for which the figures for the concentration giving a half-maximal response (EC50) (in experiment [1]; at human TLR7) were 2.1 nM and 18.5 nM, respectively.

As for `Nc1nc(NCC2CC3(CC3)C2)c2c(cnn2Cc2ccc(CN3CC4(CNC4)C3)cc2OC(F)F)n1` [Compound 242], the concentration for a half-maximal effect (EC50) (commonly the concentration at which the effect is half-maximal) in experiment [1] worked out at 588 nM; on human TLR7, 829 nM.

For `COc1cc(C(=O)N2CC3(C2)CN(C(C)C)C3)ccc1Cn1ncc2nc(N)nc(NCc3noc(C)n3)c21` [Compound 248], the EC50 in experiment [1] was 25.4 nM; on human TLR7, 73 nM.

For `COc1cc(CN2CC3(CC(OC)C3)C2)ccc1Cn1ncc2nc(N)nc(NCC3CC4(CC4)C3)c21` (centres unmarked) [Compound 147], the EC50 in experiment [1] turned out to be 37 nM; at human TLR7, 40.5 nM.

Take `COc1cc(CN2CC3(C2)CN(C(C)=O)C3)ccc1Cn1ncc2nc(N)nc(NCC3CC4(C3)CC4F)c21` (centres unmarked) [Compound 121]: the values for the concentration giving a half-maximal response (EC50) (in experiment [1]; at human TLR7) were 160 nM and 358 nM, respectively.

Consider `COc1cc(C(=O)N2CCC(S(C)(=O)=O)CC2)ccc1Cn1ncc2nc(N)nc(NCC3CC4(CC4)C3)c21` [Compound 226], for which the EC50 in experiment [1] is 555 nM; on human TLR7 it was 425 nM.

As to `Nc1nc(NCC2CC3(CC3)C2)c2c(cnn2Cc2ccc(CN3C[C@H]4CNC[C@H]4C3)cc2OC(F)F)n1` [Compound 243], the figures for the EC50 (in experiment [1]; at human TLR7) were 193 nM and 283 nM, respectively.

Take `COc1cc(C(=O)NC2CN(C)C2)ccc1Cn1ncc2nc(N)nc(NCC3CC4(CC4)C3)c21` [Compound 190]: the concentration giving a half-maximal response (EC50) in experiment [1] was determined as 168 nM; on human TLR7 it was 315 nM.

Regarding `CCCCNc1nc(N)nc2cnn(Cc3ccc(CN4CCC5(CCNC5)C4)cc3OC)c12` (centres unmarked) [Compound 265], the figures for the 50% effective concentration (EC50) (in experiment [1]; on human TLR7) were 33.1 nM and 177 nM, respectively.

With `COc1cc(C(=O)N2C[C@@H]3C[C@H]2CN3)ccc1Cn1ncc2nc(N)nc(NCC3CC4(CCC4)C3)c21` [Compound 181], the results for the half-maximal effective concentration (EC50) (in experiment [1]; at human TLR7) were 110 nM and 254 nM, respectively.

For `COc1cc(C(=O)N2CCN(CC(F)(F)F)CC2)ccc1Cn1ncc2nc(N)nc(NCC3CC4(CC4)C3)c21` [Compound 237], the EC50 worked out at 958 nM in experiment [1] and 589 nM on human TLR7.

`COc1cc(CNC2CCC2)ccc1Cn1ncc2nc(N)nc(NCC3CC4(CCC4)C3)c21` [Compound 153]: the EC50 was determined as 189 nM in experiment [1] and 30.5 nM on human TLR7.

Turning to `CCCN1CCC(NC(=O)c2ccc(Cn3ncc4nc(N)nc(NCC5CC6(CC6)C5)c43)c(OC)c2)CC1` [Compound 197], the EC50 in experiment [1] stood at 35.5 nM; on human TLR7, 32.6 nM.

In the case of `CCCCNc1nc(N)nc2c(C)nn(Cc3ccc(CN4CC5(C4)CN(C(C)=O)C5)cc3OC)c12` [Compound 244], the values for the EC50 (in experiment [1]; at human TLR7) were 31.1 nM and 138 nM, respectively.

As for `COc1cc(CN2CC3(C2)CN(C(C)=O)C3)ccc1Cn1ncc2nc(N)nc(NCc3noc(C)n3)c21` [Compound 264], the 50% effective concentration (EC50) in experiment [1] worked out at 78.2 nM; at human TLR7 it was 916 nM.

For the compound `CCCCNc1nc(N)nc2cnn(Cc3ccc(CN4CCC5(CCNCC5)CC4)cc3OC)c12` [Compound 266], the results for the EC50 (in experiment [1]; at human TLR7) were 9.3 nM and 141 nM, respectively.

For the compound `COc1cc(CN2CC3(CN(C)C3)C2)ccc1Cn1ncc2nc(N)nc(NCC3CC4(CC4)C3)c21` [Compound 131], the EC50 stood at 4.6 nM in experiment [1] and 234 nM at human TLR7.

For `CCC[C@@H](CCO)Nc1nc(N)nc2cnn(Cc3ccc(C(=O)N4CC5(CN(CCO)C5)C4)cc3OC)c12` [Compound 233], the figures for the EC50 (in experiment [1]; on human TLR7) were 265 nM and 412 nM, respectively.

For the compound `COc1cc(CN2CC(CCO)C2)ccc1Cn1ncc2nc(N)nc(NCC3CC4(CC4)C3)c21` [Compound 168], the results for the EC50 (in experiment [1]; on human TLR7) were 3.8 nM and 30.4 nM, respectively.

For the compound `CCC[C@@H](CCO)Nc1nc(N)nc2cnn(Cc3ncc(C4=CC5(CCNCC5)C4)cc3OC)c12` [Compound 272, (3S)-3-({5-amino-1-[(5-{7-azaspiro[3.5]non-1-en-2-yl}-3-methoxypyridin-2-yl)methyl]-1H-pyrazolo[4,3-d]pyrimidin-7-yl}amino)hexan-1-ol], the EC50 was 31.9 nM in experiment [1] and 668 nM at human TLR7.

Take `COc1cc(C(=O)N2C[C@H]3CN(C)C[C@H]3C2)ccc1Cn1ncc2nc(N)nc(NCC3CC4(C3)CC4(F)F)c21` (some centres unmarked) [Compound 150]: the EC50 came out at 17.2 nM in experiment [1] and 9.4 nM on human TLR7.

Consider `COc1cc(CN2C[C@@H]3C[C@H]2CN3)ccc1Cn1ncc2nc(N)nc(NCC3CC4(CCC4)C3)c21` [Compound 156], for which the concentration for a half-maximal effect (EC50) was determined as 374 nM in experiment [1] and 76.9 nM at human TLR7.

Consider `COc1cc(C(=O)NC2CCN(C(C)C)CC2)ccc1Cn1ncc2nc(N)nc(NCC3CC4(CC4)C3)c21` [Compound 194], for which the concentration giving a half-maximal response (EC50) in experiment [1] was determined as 101 nM; at human TLR7, 104 nM.

Take `CCCCNc1nc(N)nc2cnn(Cc3ccc(CN4CCC5(C4)CN(CCO)C5)cc3OC)c12` [Compound 262]: the figures for the EC50 (in experiment [1]; at human TLR7) were 4.4 nM and 64.5 nM, respectively.

`CCC[C@@H](CCO)Nc1nc(N)nc2cnn(Cc3ccc(CN4CC5(CN(CC)C5)C4)cc3OC)c12` [Compound 249]: the EC50 was found to be 1.6 nM in experiment [1] and 55.6 nM on human TLR7.

Consider `COc1cc(C(=O)N2CC3(CN(C)C3)C2)ccc1Cn1ncc2nc(N)nc(NCC3CC4(C3)CC4(F)F)c21` (centres unmarked) [Compound 149], for which the EC50 was determined as 31 nM in experiment [1] and 42 nM on human TLR7.

For the compound `CCC[C@@H](CCO)Nc1nc(N)nc2cnn(Cc3ncc(C4CCC5(CC4)CN(C(C)C)C5)cc3OC)c12` [Compound 277], the EC50 in experiment [1] is 0.3 nM; on human TLR7, 19.7 nM.

`COc1cc(C(=O)N[C@H]2CCN(C)C2)ccc1Cn1ncc2nc(N)nc(NCC3CC4(CC4)C3)c21` [Compound 192]: the EC50 in experiment [1] amounted to 21.9 nM; on human TLR7 it was 47.3 nM.

With `COc1cc(C(=O)N2C[C@H]3CN(C)C[C@H]3C2)ccc1Cn1nc(C)c2nc(N)nc(NCC3CC4(CC4)C3)c21` [Compound 217], the EC50 in experiment [1] came to 10.8 nM; on human TLR7, 115 nM.

On to `COc1cc(C(=O)N(CCO)CCO)ccc1Cn1ncc2nc(N)nc(NCC3CC4(CC4)C3)c21` [Compound 228], for which the 50% effective concentration (EC50) turned out to be 553 nM in experiment [1] and 894 nM on human TLR7.

As to `COc1cc(C(=O)N2CC3(COC3)C2)ccc1Cn1ncc2nc(N)nc(NCC3CC4(CC4)C3)c21` [Compound 174], the results for the half-maximal effective concentration (EC50) (in experiment [1]; on human TLR7) were 934 nM and 93.1 nM, respectively.

Regarding `COc1cc(CN2CC3(C2)CS(=O)(=O)C3)ccc1Cn1ncc2nc(N)nc(NCC3CC4(CC4)C3)c21` (centres unmarked) [Compound 145], the half-maximal effective concentration (EC50) in experiment [1] was 326 nM; on human TLR7, 179 nM.

Regarding `CCC[C@@H](CCO)Nc1nc(N)nc2cnn(Cc3ncc(C4=CC5(CCN(CC(C)C)CC5)C4)cc3OC)c12` [Compound 275], the EC50 turned out to be 1.2 nM in experiment [1] and 11 nM at human TLR7.

Regarding `COc1cc(C(=O)NCCN(C)C)ccc1Cn1ncc2nc(N)nc(NCC3CC4(C3)CC4(F)F)c21` (centres unmarked) [Compound 163], the EC50 in experiment [1] came to 268 nM; on human TLR7, 705 nM.

For the compound `COc1cc(CN2C[C@H]3CN(C)C[C@H]3C2)ccc1Cn1ncc2nc(N)nc(NCC3CC4(CC4)C3)c21` [Compound 148], the EC50 in experiment [1] is 9.6 nM; at human TLR7 it was 74.2 nM.

`COc1cc(CN2CC3(CCO3)C2)ccc1Cn1ncc2nc(N)nc(NCC3CC4(C3)CC4F)c21` (centres unmarked) [Compound 127]: the EC50 was determined as 413 nM in experiment [1] and 214 nM on human TLR7.

Turning to `CCC[C@@H](CCO)Nc1nc(N)nc2cnn(Cc3ncc(C4CC5(CCN(C6CCOCC6)CC5)C4)cc3OC)c12` [Compound 270], the EC50 was 0.2 nM in experiment [1] and 11.5 nM on human TLR7.

The values are drawn from patent publication US20230122249A1, “1H-PYRAZOLO[4,3-d]PYRIMIDINE COMPOUNDS AS TOLL-LIKE RECEPTOR 7 (TLR7) AGONISTS” (BRISTOL-MYERS SQUIBB COMPANY, priority 2020, published 2023).
